Data taken from the METLIN SMRT retention time set (Domingo-Almenara et al. 2019).

Assay: gradient 5% acetonitrile 3 min, to 50% in 2 min, to 85% in 15 min, held 3 min, 100 µL/min
Conditions: column: Zorbax Extend-C18 2.1 x 50 mm; eluents: water / acetonitrile, 0.1% formic acid
How it was run: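 Over 3 months, pure standards in mixtures of ~100 molecules were run by HPLC coupled to a quadrupole time-of-flight mass spectrometer in positive and negative ionization mode. The column was a Zorbax Extend-C18 (2.1 × 50 mm, 1.8 μm) at 100 μL/min, eluted with water and acetonitrile each holding 0.1% formic acid, with 40 μL dead and 900 μL dwell volumes. Retention time was determined from adduct peaks chosen by software and checked manually.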

Row | RP-LC retention time | Compound
1 | 796 s | Cc1ccc(CNC(=O)c2ccc3c(c2)Sc2ncccc2C(=O)N3C)cc1
2 | 983 s | O=C(NCc1cccs1)c1cnn2c(-c3ccc(Cl)cc3)ccnc12
3 | 573 s | Cc1cnc(-c2ccncc2)n1CC1CN(S(=O)(=O)C(C)C)C1
4 | 656 s | COC1CCC12CCN(C(=O)c1ccc(Cc3c(C)n[nH]c3C)o1)CC2 (centres undefined)
5 | 822 s | CCOC(=O)C1CCN(c2cc3c(cc2NC(=O)CC(C)C)n(C)c(=O)c(=O)n3C)CC1
6 | 636 s | CCN1CCN(CCNC(=O)c2sc3cc(Cl)ccc3c2OC)CC1
7 | 1130 s | CCCCS(=O)(=O)N1CCc2nc(-c3ccc(Cl)cc3)ncc2C1
8 | 808 s | COc1ccc(N2CC(c3nc(-c4ccccc4F)no3)CC2=O)cc1OC (centres undefined)
9 | 737 s | O=C(Cn1nc(N2CCOCC2)c2ccccc2c1=O)Nc1ccc2c(c1)OCCO2
10 | 751 s | COC(=O)c1ccc(NC(=O)C(=O)NCC2CCN(C(=O)c3ccccc3F)CC2)cc1
11 | 1130 s | CCCCN1C(=O)c2cc(S(=O)(=O)Nc3ccccc3C)ccc2Oc2cccnc21
12 | 996 s | C[C@H]1CN(C(=O)c2ccc(F)cc2)C[C@@H]1c1nc(-c2ccccc2)no1
13 | 686 s | O=C(Cc1ccccc1)N1CCN(c2nc3cccnc3o2)CC1
14 | 604 s | Cc1cc(NC(=O)C2CCN(c3ccc(-c4cccs4)nn3)CC2)sn1
15 | 778 s | CCOc1ccc(Nc2c(-c3nc(C)no3)cnc3nc(C)ccc23)cc1
16 | 544 s | Cc1csc2nc(CNS(=O)(=O)c3cccnc3)cn12
17 | 716 s | O=C(c1ccsc1)N1CCCC(c2nc(-c3ccccc3)n[nH]2)C1 (centres undefined)
18 | 586 s | Cc1nn(C(=O)CC(C)C)c(C)c1S(=O)(=O)N1CCCC1
19 | 672 s | CS(=O)(=O)N[C@H]1C[C@@H]2C[C@H]1CN2C(=O)c1cccc(Cl)c1
20 | 733 s | COc1ccc(Cn2nnc3cc(C(=O)NCC4CCCO4)ccc32)cc1 (centres undefined)
21 | 562 s | Cc1ccc(-c2[nH]ncc2CN)cc1
22 | 702 s | CC1CCc2[nH]nc(C(=O)NCC3CCCO3)c2C1 (centres undefined)
23 | 563 s | Cc1cc(C(=O)NCCN2CCN(C(=O)c3cccs3)CC2)c(C)o1

Row | RP-LC retention time | Compound
24 | 1380 s | COc1ccc(-c2nc3n(n2)C2(CCCCC2)[C@@H]2CCCC[C@@H]2N3C(=O)c2ccco2)cc1
25 | 778 s | Cc1ccccc1-n1c(Cn2nc(-c3cccc(O)c3)c3c(N)ncnc32)nc2cccc(C)c2c1=O
26 | 1230 s | CCOC(=O)c1noc2nc(C)nc(Nc3ccc(C)c(F)c3)c12
27 | 690 s | COc1ccc(-c2noc(N3CCC(C(=O)NC4CC4)CC3)n2)cc1OC
28 | 960 s | Cc1ccc(NC(=O)C2CCCN(c3ccc(=O)n(-c4cccc(Cl)c4)n3)C2)cc1C (centres undefined)
29 | 935 s | CCS(=O)(=O)N1CC(=O)N(c2cc(C)cc(C)c2)C(C)(C(=O)NC2CCCCCC2)C1 (centres undefined)
30 | 745 s | O=C(c1nccc2ccccc12)N1CCC(c2noc(C3CC3)n2)C1 (centres undefined)
31 | 986 s | CCOc1ccccc1-c1noc(-c2nc(C)no2)n1
32 | 827 s | Cc1ncc(-c2nc(-c3ccccc3)cs2)c(=O)n1CC(=O)N1CCCC1
33 | 724 s | COc1ccc(Cl)cc1N1CC(c2nc(-c3ccccn3)no2)CC1=O (centres undefined)
34 | 646 s | CCN1CCN(CCCNc2ccc(-c3nc(-c4ccc(C)cc4)no3)cn2)CC1
35 | 1160 s | Cc1ccc(-c2noc(CSc3nc4cc5c(cc4c(=O)n3CC3CCCO3)OCO5)n2)cc1 (centres undefined)
36 | 560 s | CCn1cc(S(=O)(=O)NCCn2c(C)cnc2-c2ccccc2)cn1
37 | 1120 s | CCn1cc(-c2nc(C)c(C(=O)Nc3ccccc3OC)s2)c2cccnc21
38 | 653 s | Cc1cc(C)c2c(N3CCOCC3)nc(C(=O)N3CCN(c4ccccc4)CC3)nc2n1
39 | 744 s | Cc1ccc(-n2c(Cc3cccn3C)nnc2SCC(=O)NCC2CCCO2)cc1 (centres undefined)
40 | 1010 s | Cc1ccc(N2N=NC3C(=O)N(c4ccccc4)C(=O)C32)cc1F (centres undefined)
41 | 642 s | CCOc1ccc(C(=O)NCCc2nc3cccnc3n2CC)cc1
42 | 560 s | O=C(NCCn1ncccc1=O)C1CCN(c2ccc(-c3ccc(F)cc3)nn2)CC1
43 | 992 s | COc1ccc(N2CC(c3noc(-c4ccc(OC)cc4C)n3)CC2=O)cc1 (centres undefined)
44 | 882 s | Cn1c(=O)n(C)c2cc(S(=O)(=O)c3ccc(F)cc3)c(NC(=O)c3ccccc3F)cc21
45 | 1140 s | COc1ccc(Cl)cc1NC(=O)c1c(N)c(C(=O)c2cccs2)n2ccccc12
46 | 894 s | COc1cc(NC(=O)CN2C(=O)C(O)(c3cccc(F)c3)c3ccccc32)cc(OC)c1 (centres undefined)

Row | RP-LC retention time | Compound
47 | 748 s | CCCc1noc(-c2cccnc2N2CCCN(Cc3ccc(F)cc3Cl)CC2)n1
48 | 890 s | CCN(CC)C(=O)Cn1cc(C(=O)C(=O)N(C)Cc2ccccc2)c2ccccc21
49 | 941 s | O=S(=O)(Cc1ccccc1)N1CCC(c2noc(COCC3CC3)n2)CC1
50 | 849 s | COc1ccc(Cl)cc1S(=O)(=O)Nc1cccn2c(C3CCC3)nnc12
51 | 850 s | COC(=O)c1ccc(NC(=O)C2c3cc(F)ccc3CCN2C(=O)OC)cc1 (centres undefined)
52 | 669 s | CCNC(=O)Nc1ccc(OCC(=O)NCc2cccc(OC)c2)nc1
53 | 656 s | COc1ccc(NC(=O)c2nc(N3CCCC3)c3c(C)cc(C)nc3n2)cc1
54 | 968 s | COc1cc(-c2cc(CN(CC3CCCO3)C(=O)C3CCCCC3)no2)cc(OC)c1OC (centres undefined)
55 | 1030 s | CSc1ccc(CNC(=O)CCCn2nc(-n3cccc3)c3c(C)cc(C)nc32)cc1
56 | 961 s | CCC(C)NC(=O)c1nnc(-c2ccc(S(=O)(=O)N3CCCCC3)cc2)o1 (centres undefined)
57 | 886 s | Cc1ccc2c(c1)N(C(=O)Cn1ncn3c(C)c(C(=O)NCc4ccccc4)c(C)c3c1=O)CCO2
58 | 658 s | COc1cccc(NC(=O)Cn2cnc3nc(N4CCC(C(=O)NC5CC5)CC4)sc3c2=O)c1
59 | 730 s | O=C(NC1CC1)C1CCN(Cc2cc3ccccc3n2Cc2cccc(Cl)c2)CC1
60 | 849 s | O=C(Cc1ccc([N+](=O)[O-])cc1)NCc1ccc2[nH]c3c(c2c1)CCCC3
61 | 1210 s | CCn1c(C(=O)NCc2ccc(Cl)cc2)cc2sccc21
62 | 805 s | COc1ccc(CN2C(=O)COC[C@H]2C(=O)NCc2ccc(Cl)cc2)c(OC)c1
63 | 696 s | COC(=O)c1cccc(Nc2c(-c3cccc(O)c3)nc3cnccn23)c1
64 | 585 s | NCCC1CCN(C(=O)Nc2ccc(F)cc2F)CC1
65 | 825 s | O=C(NC1CCCN(c2cc(-c3ccc(Cl)cc3)[nH]n2)C1)c1ccc2[nH]ccc2c1 (centres undefined)
66 | 1020 s | Cc1ccc(CNC(=O)C2(C)CCCN(C(=O)Nc3ccccc3Br)C2)cc1 (centres undefined)
67 | 604 s | Cn1c(CNC(=O)c2ccc3c(c2)N(S(C)(=O)=O)CC3)nc2ccccc21
68 | 865 s | Cc1noc2ncnc(N3CCC(C(=O)N4CCCc5ccccc54)CC3)c12
69 | 1270 s | Cc1ccc(-c2csc(Cc3nc(-c4cccc(F)c4)no3)n2)cc1

Row | RP-LC retention time | Compound
70 | 812 s | Cc1cc(C(=O)Nc2nnc(-c3cc4ccccc4o3)o2)c(C)o1
71 | 881 s | CCCN1C(=O)Cc2ccccc2C1C(=O)NCC1CCCCC1 (centres undefined)
72 | 884 s | CCC(=O)N1CCc2ccccc2C1C(=O)NCc1ccccc1Br (centres undefined)
73 | 735 s | COc1ccc(CC(=O)Nc2ccc(-c3nc(C)no3)cc2)cc1OC
74 | 652 s | CC(=O)c1ccc(NC(=O)c2c[nH]c3ncccc23)cc1
75 | 919 s | COc1ccc(-c2cc(-c3nc4c5sc6nc(C)cc(C)c6c5ncn4n3)[nH]n2)cc1OC
76 | 602 s | CCN(CC)C(=O)Cn1ccc(NC(C)=O)nc1=O
77 | 758 s | CCc1noc(NC(C)=O)c1-c1ccc(C)c(S(=O)(=O)N2CCN(C(=O)c3ccco3)CC2)c1
78 | 612 s | COc1ccc(C(CC(=O)N2CCN(c3ccccn3)CC2)N2Cc3ccccc3C2=O)cc1OC (centres undefined)
79 | 592 s | CCCn1c(C(=O)NN2CCCC2=O)cc2c(=O)n(C)c(=O)n(C)c21
80 | 778 s | Cc1ccc(CNC2=NCCNC23CCN(S(=O)(=O)c2ccc(Cl)cc2)CC3)cc1
81 | 932 s | O=c1c(NCc2ccccc2Cl)nccn1-c1ccc2c(c1)OCO2
82 | 672 s | COc1cc2c(cc1OC)C(=O)Cc1ccc3c(c1CN(C)CC2)OCO3
83 | 711 s | Cc1cc(Br)ccc1NC(=O)Cn1cnc2c(nc3n2CCCCC3)c1=O
84 | 642 s | COc1ccc(C(O)CN2CCN(c3ccccc3F)CC2)cc1OC (centres undefined)
85 | 592 s | O=C(c1ccccc1)N1CCCCC1c1nncn1CC1CC1 (centres undefined)
86 | 870 s | CC(C)Oc1ccc(-c2nc3ncccn3c2NC2CCCCC2)cc1
87 | 1150 s | COc1ccc(-c2noc(C3(NC(=O)c4ccc(F)cc4)CCCCC3)n2)cc1
88 | 627 s | O=C(NCc1ccc2c(c1)OCO2)C(=O)NCC1(CO)CC1
89 | 803 s | Cc1ccc(CNC(=O)c2cn(C)c3c(c(C)nn3-c3ccc(F)cc3)c2=O)o1
